Laboratory results taken from patent US11648242B2, “Pharmaceutical composition comprising pimavanserin, process of preparation and use thereof” (Aurobindo Pharma Ltd., priority 2019, dated 2023).
Structures can show the parent of a compound that is named as a salt.

Assays:
[1] = cited from earlier work
Bulk density of the API = type: physicochemical; settings: native amorphous pimavanserin tartrate API
[2] = Particle size distribution (D90) of the API; type: physicochemical; settings: native amorphous pimavanserin tartrate API

Compound: CC(C)COc1ccc(CNC(=O)N(Cc2ccc(F)cc2)C2CCN(C)CC2)cc1 [Pimavanserin tartrate, urea, N-[(4-fluorophenyl)methyl]-N-(1-methyl-4-piperidinyl)-N′-[[4-(2methylpropoxy)phenyl]methyl]-, (2R, 3R)-2,3-dihydroxybutanedioate (2:1)]
- Solubility in water [1]: freely soluble

Compound: CC(C)COc1ccc(CNC(=O)N(Cc2ccc(F)cc2)C2CCN(C)CC2)cc1 [native amorphous pimavanserin tartrate]
- Bulk density (Bulk density of the API): 0.374 g/mL
- Particle size distribution of API (D90) [2]: about 100 μm
